Holding throughout (assay type): cell-based
The target in assay [1] is T1, PDGFR-β (Homo sapiens, UniProt P09619). Briefly: pPDGFR-β/tPDGFR-β ratio in PDGF-stimulated HUVEC cells. Details: endogenous in cells; host or cells: HUVEC. Conditions: for HUVEC pPDGFR-β/tPDGFR-β fold ratio change: PDGF 50 ng/ml 10 min. The text has this: (§1) Thus, we repeated the experiment using additional RTKs and RTKIs. We used a known RTKI challenge reagent SU11248, which blocks phosphorylation of several kinases, including VEGFR2 (KDR), stem cell tyrosine kinase receptor (KIT), platelet-derived growth factor receptor (PDGFR), and fms-related tyrosine kinase 3 (FLT3).

In assay [2] the target is T1, PDGFR-β. Kind of assay: pPDGFR-β/tPDGFR-β ratio in PDGF-stimulated GIST cells. Particulars: for GIST pPDGFR-β/tPDGFR-β fold ratio change: PDGF 50 ng/ml 10 min. Further details: endogenous in cells; host or cells: GIST (gastrointestinal stromal tumor) cells.
Source text: as §1

The target in assay [3] is T2, EGFR (Homo sapiens, UniProt P00533).
T2 construct: host or cells: HT-29 colon cancer cells
Kind of assay: pEGFR and tEGFR levels in EGF-stimulated HT-29 colon cancer cells by laser scanning cytometry. Conditions: HT-29 cells; for pEGFR fold change in level / pEGFR/tEGFR fold change in level / tEGFR fold change in level: 0% FCS, EGF 100 ng/ml for 5 min. The method, then:
We sought to test RTK response to RTKI's and thus measured both phospho-RTK and total RTK using a known RTKI challenge reagent. AEE788 (NOVARTIS®) is an oral multiple-receptor tyrosine kinase inhibitor of EGFR, human epidermal growth factor receptor 2 (HER-2), and vascular endothelial growth factor receptor (VEGFR). Thus, we measured EGFR response to AEE788 using antibody quantitation of the two parameters. HT-29 colon cancer cells were treated with increasing doses of AEE788, (0, 4, 20, 100, and 1000 nM) for 4 hours in serum-free media followed by EGF stimulation at 100 ng/ml for 5 minutes. Cells were then fixed and stained with anti-phospho-EGFR (P-EGFR-Y1173) antibody followed by a secondary antibody conjugated with a fluorescent probe. The mean fluorescence index (MFI) of pEGFR was quantified by laser scanning cytometry (LSC) […] and the results are shown in Table 2.

Each structure is given as a SMILES string.

T2 sequence (P00533 25-1210): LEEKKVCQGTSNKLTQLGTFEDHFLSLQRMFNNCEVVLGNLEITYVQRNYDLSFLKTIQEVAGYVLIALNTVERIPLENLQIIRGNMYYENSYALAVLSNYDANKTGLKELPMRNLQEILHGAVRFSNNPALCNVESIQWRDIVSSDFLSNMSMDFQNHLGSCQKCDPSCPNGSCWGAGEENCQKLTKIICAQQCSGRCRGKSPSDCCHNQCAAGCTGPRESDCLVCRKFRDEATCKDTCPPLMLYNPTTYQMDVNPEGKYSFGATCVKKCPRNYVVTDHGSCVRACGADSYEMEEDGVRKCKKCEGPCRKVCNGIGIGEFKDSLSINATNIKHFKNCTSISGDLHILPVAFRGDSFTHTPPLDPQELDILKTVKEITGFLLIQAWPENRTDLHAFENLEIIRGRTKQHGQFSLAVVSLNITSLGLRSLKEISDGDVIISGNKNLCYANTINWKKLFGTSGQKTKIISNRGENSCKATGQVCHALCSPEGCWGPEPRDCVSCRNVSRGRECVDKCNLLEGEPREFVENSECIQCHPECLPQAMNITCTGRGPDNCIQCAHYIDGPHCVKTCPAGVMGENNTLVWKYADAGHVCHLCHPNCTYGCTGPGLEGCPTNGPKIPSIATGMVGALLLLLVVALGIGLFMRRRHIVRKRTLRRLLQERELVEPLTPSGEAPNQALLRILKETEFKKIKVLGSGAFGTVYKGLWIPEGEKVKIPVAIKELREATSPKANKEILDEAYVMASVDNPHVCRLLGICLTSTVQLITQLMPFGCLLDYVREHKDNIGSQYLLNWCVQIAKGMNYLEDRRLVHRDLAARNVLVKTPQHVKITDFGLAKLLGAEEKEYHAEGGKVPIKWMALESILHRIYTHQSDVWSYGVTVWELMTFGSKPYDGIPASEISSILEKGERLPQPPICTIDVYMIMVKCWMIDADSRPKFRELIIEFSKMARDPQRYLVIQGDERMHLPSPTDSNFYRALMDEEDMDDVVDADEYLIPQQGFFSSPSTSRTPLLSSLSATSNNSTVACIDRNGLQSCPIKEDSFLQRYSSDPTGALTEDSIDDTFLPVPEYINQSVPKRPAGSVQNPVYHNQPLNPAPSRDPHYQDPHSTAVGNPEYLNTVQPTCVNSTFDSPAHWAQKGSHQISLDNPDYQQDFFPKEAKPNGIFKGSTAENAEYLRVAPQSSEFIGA
T1 sequence (P09619 33-1106): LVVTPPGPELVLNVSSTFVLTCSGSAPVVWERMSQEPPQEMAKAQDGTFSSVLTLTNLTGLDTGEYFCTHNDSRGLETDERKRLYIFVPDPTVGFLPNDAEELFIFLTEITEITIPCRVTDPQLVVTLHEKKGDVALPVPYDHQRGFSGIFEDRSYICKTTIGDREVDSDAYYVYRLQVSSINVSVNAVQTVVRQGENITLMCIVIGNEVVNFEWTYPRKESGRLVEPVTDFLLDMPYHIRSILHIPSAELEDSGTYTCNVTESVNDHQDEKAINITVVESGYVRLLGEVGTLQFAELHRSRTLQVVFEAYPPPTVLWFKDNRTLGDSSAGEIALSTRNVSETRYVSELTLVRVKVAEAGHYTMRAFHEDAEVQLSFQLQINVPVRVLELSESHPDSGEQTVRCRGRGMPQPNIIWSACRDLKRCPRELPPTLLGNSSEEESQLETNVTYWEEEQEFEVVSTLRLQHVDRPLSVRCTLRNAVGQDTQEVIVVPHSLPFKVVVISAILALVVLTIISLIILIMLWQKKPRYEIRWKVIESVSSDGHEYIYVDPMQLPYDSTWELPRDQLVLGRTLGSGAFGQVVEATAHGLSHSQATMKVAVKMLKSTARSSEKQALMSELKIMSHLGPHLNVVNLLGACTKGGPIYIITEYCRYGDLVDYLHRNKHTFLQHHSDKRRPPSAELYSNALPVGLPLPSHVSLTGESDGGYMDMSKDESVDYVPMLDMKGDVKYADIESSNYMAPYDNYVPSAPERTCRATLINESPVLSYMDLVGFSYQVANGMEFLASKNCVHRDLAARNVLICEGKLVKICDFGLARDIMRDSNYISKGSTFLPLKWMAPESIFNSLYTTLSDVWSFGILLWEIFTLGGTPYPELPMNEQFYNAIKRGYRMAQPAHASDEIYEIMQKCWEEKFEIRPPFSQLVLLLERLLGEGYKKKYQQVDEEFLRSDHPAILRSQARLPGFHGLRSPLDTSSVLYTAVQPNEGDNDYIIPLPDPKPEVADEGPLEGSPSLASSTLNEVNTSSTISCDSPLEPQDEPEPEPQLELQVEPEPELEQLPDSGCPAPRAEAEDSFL

Regarding `CCN(CC)CCNC(=O)c1c(C)[nH]c(/C=C2\C(=O)Nc3ccc(F)cc32)c1C` [SU11248], the “pPDGFR-β/tPDGFR-β ratio, in words” value in assay [1] and in assay [2] was “decreased in a dose-dependent manner” each time. Besides, the entries for the “HUVEC pPDGFR-β/tPDGFR-β fold ratio change” value in assay [1] (0.01 μM), in assay [1] (0.1 μM) and in assay [1] (1 μM) were 2.42 ± 0.36 fold, 1.48 ± 0.15 fold and 1.40 ± 0.23 fold, respectively. Further, the “GIST pPDGFR-β/tPDGFR-β fold ratio change” value is given as 0.97 ± 0.05 fold in assay [2] (0.01 μM), 0.00 ± 0.59 fold in assay [2] (0.1 μM) and 0.00 ± 0.08 fold in assay [2] (1 μM).
`CCN1CCN(Cc2ccc(-c3cc4c(N[C@H](C)c5ccccc5)ncnc4[nH]3)cc2)CC1` [AEE788]: in assay [3] (4 nM for 4 h), the “pEGFR fold change in level” value is listed as 1.36 fold, the “pEGFR/tEGFR fold change in level” value is given as 0.65 fold and the “tEGFR fold change in level” value came to 2.11 fold. Besides, in assay [3] (20 nM for 4 h), the “pEGFR fold change in level” value worked out at 0.97 fold, the “pEGFR/tEGFR fold change in level” value is reported as 0.21 fold and the “tEGFR fold change in level” value was determined as 4.61 fold. Further, in assay [3] (100 nM for 4 h), the “pEGFR fold change in level” value is 0.70 fold, the “pEGFR/tEGFR fold change in level” value is reported as 0.16 fold and the “tEGFR fold change in level” value is 4.37 fold. Moreover, in assay [3] (1000 nM for 4 h), the “pEGFR fold change in level” value stood at 0.52 fold, the “pEGFR/tEGFR fold change in level” value came to 0.15 fold and the “tEGFR fold change in level” value was 3.53 fold. Moreover, in assay [3] (4-1000 nM), the “EGF-induced phosphorylation of EGFR (pEGFR), in words” value is on record as “inhibited EGF-induced phosphorylation of its receptor (pEGFR) in a dose-dependent manner” and the “total EGFR levels, in words” value is “up-regulated total EGFR levels”.

(Values after patent US20100112617A1, “Evaluating RTK Target Drugs” (Apocell, Inc, priority 2007, published 2010).)
